Experimental data from patent US8293528B2, “Peptide compositions and their use in particular in the preparation of pharmaceutical compositions active against the hepatitis C virus” (priority 2002, dated 2012).
“And” between values parts separate entries of the source, which are not always exact repeats. Equal values may be shown once.

Assays:
[1] = system: blood cells from 3 patients infected by the hepatitis C virus of genotype 1 and having an HLA of type HLA-A2+; settings: ELISPOT, 48 hours, positive if more than 20 spots per well
Method: The ability of blood cells from 3 patients infected by the hepatitis C virus of genotype 1 and having an HLA of type HLA-A2+ to produce gamma-interferon cytokines and interleukin-10, in response to two peptides predicted by software developed by bioMerieux (Centre d'Immunologie de Pierre Fabre) to bind to the HLA-A2 molecule was tested.
The assay of these cytokines reflects the ability of the peptides to induce immune responses to cell mediation, either of type 1 (gamma interferon), or of type 2 (interleukin-10)
After 48 hours of incubation at 37° C., a period during which the cells specific to the peptides will locally produce cytokines which will bind to the specific antibodies, anti-gamma interferon or anti-interleukin-10 antibodies, alkaline phosphatase coupled to avidine and the alkaline phosphatase substrate (NBT/BCIP) were added.
The violet-blue spots, which represent each gamma-interferon or interleukin-10-producing cell were counted, using Zeiss's ELISPOT automated reader (KS Elispot) and only considered positive when the number of spots per well was greater than 20.

HLA-A2.1-transgenic mice = assay: CTL test after immunization with peptides/compositions/epitopes; type: in vivo; settings: FIG. 10; 18 nmoles of D peptide versus 60 nmoles of ALY epitope, ALY epitope as target
Method: In order to do this, 2 sub-cutaneous injections were administered into the base of the tail of each mouse, with an interval of 15 days, of a mixture containing 18 nmoles of peptide of the invention and 18 nmoles of the HBV core helper peptide in incomplete Freund's adjuvant (IFA, Brinster et al., Hepatology 2001) or containing 60 nmoles of epitope of the invention and 60 nmoles of the helper peptide in IFA.
The control mice received only the helper peptide in IFA.
Fifteen days after the 2nd injection, the cell response was analyzed by isolating the spleen cells (splenocytes) of mice and a CTL test and an ELISPOT test were carried out as follows:
For the CTL test, these splenocytes were cultured in 24-well plates in the presence of 5 μM of the peptide or epitope of interest and 10 U of recombinant murine interleukin-2 (Brinster et al., Hepatology 2001) per ml in alpha minimum essential medium (αMEM) for 5 days. […] The specific cytotoxic activity of the effective cells was determined by measuring, after 4 hours of incubation with the target cells, the Cr^51 released following the lysis of the target cells using a γ-Cobra II (Packard, Rungis, France) counting device. The spontaneous and maximum release from wells containing either the medium alone, or the lysis buffer (HCl 1N) were determined. […]

[2] = system: Mice transgenic for the molecule HLA.A2.1; assay: ELISPOT after immunization of transgenic mice with predicted epitopes; type: in vivo; settings: three individual mice; two injections of epitope 60 μM + T-helper peptide in IFA; two weeks after last immunization
Method: Mice transgenic for the molecule HLA.A2.1 and devoid of murine class 1 molecules (Pascolo S., et al., 1997, J. Exp Med., 185: 2043-2051) were immunized with the FLL and ILA epitopes predicted as being class I epitopes restricted by the molecule HLA.A2.1.
In order to do this, the mice were immunized in the base of their tails with a peptide mixture containing one of the above epitopes (60 μM) and the T-helper peptide (Lone, Y. C. et al., (1998), J. Immunother. 21:283-294) (60 μM) emulsified in incomplete Freund's adjuvant (Sigma St Louis, Mo.). The mice received two injections with an interval of two weeks and the immune responses were analyzed two weeks after the last immunization as indicated in Example 1 (Elispot).

Substance	production of gamma interferon [1]	production of interleukin-10 [1]	lysis effectiveness (HLA-A2.1-transgenic mice)	Number of spots/10^6 cells (gamma-interferon-producing cells) [2]
LLGCIITSL	significant production of gamma interferon in 2 of the 3 patients	significant production	–	–
D peptide: D peptide of sequence SEQ ID NO: 176, in NS5b between positions 2573 and 2601 of the viral polyprotein	–	–	identical lysis effectiveness	–
ILAGYAGAGV	–	–	–	5 spots/10^6 cells and 2 spots/10^6 cells and 0 spots/10^6 cells
FLATCVNGV	little if any production	little if any production	–	–
